{"source": "the supplement of paper PMC10307832", "assay_in_all_cases": "relative viability (nuclei count vs DMSO), 5 days (fraction); higher = more cells survive", "key": {"GSK126 + Olaparib": {"compound": "CC[C@H](C)N1C=C(C2=C(C=C(C=C21)C3=CN=C(C=C3)N4CCNCC4)C(=O)NCC5=C(C=C(NC5=O)C)C)C [GSK126] + O=C(c1cc(Cc2n[nH]c(=O)c3ccccc23)ccc1F)N1CCN(C(=O)C2CC2)CC1 [Olaparib] (partner 8 µM)", "procedure,_shortened": "(§1)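 One day after seeding in 1536-well plates, lung cancer cell lines were dosed by pin tool. Dosing was either single-drug or a fixed anchor-drug dose plus five library-drug doses (not always all listed) in √10 steps. After 5 days, nuclei were stained in one fix-and-stain step and counted on 4× images, and relative viability is the nuclei count of treated wells over that of vehicle wells, given as the median of duplicate plates.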"}, "Carboplatin + Bortezomib": {"compound": "C1CC(C1)(C(=O)O)C(=O)O.[NH2-].[NH2-].[Pt+2] [Carboplatin] + CC(C)C[C@H](NC(=O)[C@H](Cc1ccccc1)NC(=O)c1cnccn1)B(O)O [Bortezomib] (partner 0.002 µM)", "procedure,_shortened": "as §1"}, "GSK126 + Foretinib": {"compound": "CC[C@H](C)N1C=C(C2=C(C=C(C=C21)C3=CN=C(C=C3)N4CCNCC4)C(=O)NCC5=C(C=C(NC5=O)C)C)C [GSK126] + COc1cc2c(Oc3ccc(NC(=O)C4(C(=O)Nc5ccc(F)cc5)CC4)cc3F)ccnc2cc1OCCCN1CCOCC1 [Foretinib] (partner 0.25 µM)", "procedure,_shortened": "as §1"}, "GSK126 + Crizotinib": {"compound": "CC[C@H](C)N1C=C(C2=C(C=C(C=C21)C3=CN=C(C=C3)N4CCNCC4)C(=O)NCC5=C(C=C(NC5=O)C)C)C [GSK126] + C[C@@H](Oc1cc(-c2cnn(C3CCNCC3)c2)cnc1N)c1c(Cl)ccc(F)c1Cl [Crizotinib] (partner 1 µM)", "procedure,_shortened": "as §1"}}, "data": [{"cell line": "UMC-11", "values": [{"measurement": "relative viability", "setting": "GSK126 + Olaparib; first compound 0.08 µM", "result": 0.345}, {"measurement": "relative viability", "setting": "GSK126 + Olaparib; first compound 0.253 µM", "result": 0.364}, {"measurement": "relative viability", "setting": "GSK126 + Olaparib; first compound 0.8 µM", "result": 0.394}, {"measurement": "relative viability", "setting": "GSK126 + Olaparib; first compound 2.53 µM", "result": 0.376}, {"measurement": "relative viability", "setting": "GSK126 + Olaparib; first compound 8 µM", "result": 0.361}, {"measurement": "relative viability", "setting": "Carboplatin + Bortezomib; first compound 0.08 µM", "result": 0.941}, {"measurement": "relative viability", "setting": "Carboplatin + Bortezomib; first compound 0.253 µM", "result": 0.904}, {"measurement": "relative viability", "setting": "Carboplatin + Bortezomib; first compound 0.8 µM", "result": 0.675}, {"measurement": "relative viability", "setting": "Carboplatin + Bortezomib; first compound 2.53 µM", "result": 0.622}, {"measurement": "relative viability", "setting": "Carboplatin + Bortezomib; first compound 8 µM", "result": 0.382}, {"measurement": "relative viability", "setting": "GSK126 + Foretinib; first compound 0.08 µM", "result": 1.04}, {"measurement": "relative viability", "setting": "GSK126 + Foretinib; first compound 0.253 µM", "result": 1.04}, {"measurement": "relative viability", "setting": "GSK126 + Foretinib; first compound 0.8 µM", "result": 1.02}, {"measurement": "relative viability", "setting": "GSK126 + Foretinib; first compound 2.53 µM", "result": 1.03}, {"measurement": "relative viability", "setting": "GSK126 + Foretinib; first compound 8 µM", "result": 1.19}, {"measurement": "relative viability", "setting": "GSK126 + Crizotinib; first compound 0.08 µM", "result": 0.723}, {"measurement": "relative viability", "setting": "GSK126 + Crizotinib; first compound 0.253 µM", "result": 0.689}, {"measurement": "relative viability", "setting": "GSK126 + Crizotinib; first compound 0.8 µM", "result": 0.604}, {"measurement": "relative viability", "setting": "GSK126 + Crizotinib; first compound 2.53 µM", "result": 0.523}, {"measurement": "relative viability", "setting": "GSK126 + Crizotinib; first compound 8 µM", "result": 0.525}]}]}
